Earlier results on one compound are cited in patent US20050154020A1, “4-Aryl piperidines” (Synaptic Pharmaceutical Corporation, priority 2004, published 2005).

Data set [1] concerns the target T1, MCH1 (Rattus norvegicus, UniProt P97639).
T1 construct: from tissue; host or cells: whole living rat (in vivo behavioural model)

Data set [2] has as its target T2, MCH1 (Cavia porcellus, UniProt H0VKT7).
T2 construct: from tissue; host or cells: whole living guinea pig (in vivo behavioural model)

For data set [3], the target named is T1, MCH1. This is another data set of the same source.

T1 sequence (P97639 whole entry): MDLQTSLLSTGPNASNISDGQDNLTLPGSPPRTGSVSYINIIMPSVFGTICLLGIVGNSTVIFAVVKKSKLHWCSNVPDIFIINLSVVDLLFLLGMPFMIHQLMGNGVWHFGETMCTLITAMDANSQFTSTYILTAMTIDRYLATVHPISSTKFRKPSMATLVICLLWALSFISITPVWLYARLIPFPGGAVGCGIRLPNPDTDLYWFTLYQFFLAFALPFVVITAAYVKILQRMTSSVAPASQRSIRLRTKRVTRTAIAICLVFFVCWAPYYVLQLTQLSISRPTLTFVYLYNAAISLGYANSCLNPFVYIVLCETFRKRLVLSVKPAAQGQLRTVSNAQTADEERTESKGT
T2 sequence (H0VKT7 1-355): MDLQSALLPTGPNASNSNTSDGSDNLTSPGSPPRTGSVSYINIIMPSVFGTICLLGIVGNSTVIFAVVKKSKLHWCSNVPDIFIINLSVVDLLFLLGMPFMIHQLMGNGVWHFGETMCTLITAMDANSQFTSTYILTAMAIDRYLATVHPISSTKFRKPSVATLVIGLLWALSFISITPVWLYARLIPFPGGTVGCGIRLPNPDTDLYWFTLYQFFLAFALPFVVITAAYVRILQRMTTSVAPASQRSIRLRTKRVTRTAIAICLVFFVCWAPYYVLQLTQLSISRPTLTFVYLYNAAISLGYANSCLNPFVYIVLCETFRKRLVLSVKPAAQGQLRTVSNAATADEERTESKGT

Turning to `COCC1=C(C(=O)OC)[C@H](c2ccc(F)c(F)c2)N(C(=O)NCCCN2CCC(c3cccc(NC(C)=O)c3)CC2)C(=O)N1` [SNAP-7941], the “effect in rat forced-swim test (model of depression/anxiety)” value on MCH1 [1] is “effects similar to clinically used antidepressants and anxiolytics”. For the same compound, the “effect in guinea pig maternal-separation vocalization test (model of depression/anxiety)” value at MCH1 [2] is “effects similar to clinically used antidepressants and anxiolytics”. Also, the “effect in rat social interaction test (model of depression/anxiety)” value on MCH1 [3] was “effects similar to clinically used antidepressants and anxiolytics”.
